SMILES strings stand for the structures.

Chain of human RIP1 kinase domain (2-375) (Q13546 2-375): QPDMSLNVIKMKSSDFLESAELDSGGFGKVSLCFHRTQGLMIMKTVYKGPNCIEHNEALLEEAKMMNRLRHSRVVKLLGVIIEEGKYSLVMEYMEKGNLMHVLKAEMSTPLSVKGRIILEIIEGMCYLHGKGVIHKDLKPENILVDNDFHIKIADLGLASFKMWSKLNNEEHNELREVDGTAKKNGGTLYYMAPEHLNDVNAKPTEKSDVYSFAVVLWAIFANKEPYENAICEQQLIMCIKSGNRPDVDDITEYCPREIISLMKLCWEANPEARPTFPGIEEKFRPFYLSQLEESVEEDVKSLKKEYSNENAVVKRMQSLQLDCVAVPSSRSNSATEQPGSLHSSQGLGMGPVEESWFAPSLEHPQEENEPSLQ

One experiment addresses human RIP1 kinase domain (2-375) (Homo sapiens (Human), UniProt Q13546). The experiment in a line: biochemical. Conditions: human RIP1 kinase domain (2-375), 50 uM ATP, 2 hours incubation, Transcreener ADP assay; read-out: RIP1 Ki. It counts as biochemical. The method in brief: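 50 nM purified kinase domain from baculovirus-infected insect cells, incubated 2 h with compound in 50 mM Hepes pH 7.5, 30 mM MgCl2, 1 mM DTT, 50 uM ATP, 0.002% Brij-35, 0.5% DMSO. ADP formation read by Transcreener FP at 633 nm excitation. Ki^app fitted with the Morrison tight-binding equation.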
Take `CN1C(=O)[C@@H](NC(=O)c2ncn(Cc3ccc(F)cc3)n2)CCn2nc(C3CC3)cc21` [Example 225, (S)—N-(2-cyclopropyl-4-methyl-5-oxo-5,6,7,8-tetrahydro-4H-pyrazolo[1,5-a][1,3]diazepin-6-yl)-1-(4-fluorobenzyl)-1H-1,2,4-triazole-3-carboxamide]: the inhibition constant Ki (commonly the dissociation constant of the complex between target and ligand, obtained from inhibition or displacement) is 21 nM.

The experiment is the same for the next values; noted with them: human RIP1 kinase domain (2-375), Transcreener ADP assay, 50 uM ATP, 2 hours incubation; read-out: RIP1 Ki.
In the case of `Cc1ncn2c1N(C)C(=O)C(NC(=O)c1n[nH]c(Cc3ccccc3)n1)CC2` (stereo not shown) [Example 226, 5-benzyl-N-(1,9-dimethyl-2-oxo-2,3,4,5-tetrahydro-1H-imidazo[1,5-a][1,3]diazepin-3-yl)-1H-1,2,4-triazole-3-carboxamide], the Ki turned out to be 183 nM.
Regarding `Cc1ncn2c1N(C)C(=O)C(NC(=O)c1cn(Cc3ccccc3)nn1)CC2` (stereo not shown) [Example 227, 1-benzyl-N-(1,9-dimethyl-2-oxo-2,3,4,5-tetrahydro-1H-imidazo[1,5-a][1,3]diazepin-3-yl)-1H-1,2,3-triazole-4-carboxamide], the Ki turned out to be 419 nM.
For the compound `CC(C)c1ccc2[nH]nc(C(=O)N[C@H]3COc4ccccc4N(C)C3=O)c2c1` [Example 228, (S)-5-isopropyl-N-(5-methyl-4-oxo-2,3,4,5-tetrahydrobenzo[b][1,4]oxazepin-3-yl)-1H-indazole-3-carboxamide], the Ki is 5 nM.
As for `CN1C(=O)[C@@H](NC(=O)c2cc3c(cn2)COC3(C)CC(F)(F)F)COc2ccccc21` (stereo partly drawn) [Example 229, 1-methyl-N—((S)-5-methyl-4-oxo-2,3,4,5-tetrahydrobenzo[b][1,4]oxazepin-3-yl)-1-(2,2,2-trifluoroethyl)-1,3-dihydrofuro[3,4-c]pyridine-6-carboxamide], the Ki amounted to 44.6 nM.
The same measure, in the same setting: the value for `CN1C(=O)[C@@H](NC(=O)c2ncn3cnc(C(F)(F)F)cc23)COc2ccccc21` [Example 230, (S)—N-(5-methyl-4-oxo-2,3,4,5-tetrahydrobenzo[b][1,4]oxazepin-3-yl)-7-(trifluoromethyl) imidazo[1,5-c]pyrimidine-1-carboxamide] was 21.7 nM; that for `COCC1(C)OCc2cnc(C(=O)N[C@H]3COc4ccccc4N(C)C3=O)cc21` (stereo partly drawn) [Example 231, 1-(methoxymethyl)-1-methyl-N—((S)-5-methyl-4-oxo-2,3,4,5-tetrahydrobenzo[b][1,4]oxazepin-3-yl)-1,3-dihydrofuro[3,4-c]pyridine-6-carboxamide] was 511 nM.
The same measure, in the same setting: next, `CN1C(=O)[C@@H](NC(=O)c2cc3c(cn2)COC32CCOC2)COc2ccccc21` (stereo partly drawn) [Example 232, N—((S)-5-methyl-4-oxo-2,3,4,5-tetrahydrobenzo[b][1,4]oxazepin-3-yl)-4,5-dihydro-2H,3′ H-spiro[furan-3,1′-furo[3,4-c]pyridine]-6′-carboxamide]: 88.7 nM; `CC[C@@]1(C)OCc2cnc(C(=O)NC3CCn4ccnc4N(C)C3=O)cc21` (stereo partly drawn) [Example 233, (1R)-1-ethyl-1-methyl-N-(9-methyl-8-oxo-6,7,8,9-tetrahydro-5H-imidazo [1,2-a][1,3]diazepin-7-yl)-1,3-dihydrofuro[3,4-c]pyridine-6-carboxamide]: 2000 nM.
Regarding `CN1C(=O)C(NC(=O)c2ncn(Cc3ccccc3)n2)CCn2nc(C3CCOCC3)cc21` (stereo not shown) [Example 234, 1-benzyl-N-(4-methyl-5-oxo-2-(tetrahydro-2H-pyran-4-yl)-5,6,7,8-tetrahydro-4H-pyrazolo[1,5-a][1,3]diazepin-6-yl)-1H-1,2,4-triazole-3-carboxamide], the inhibition constant (Ki) worked out at 199 nM.
On the same count and under the same terms, next, `CN1C(=O)C(NC(=O)c2n[nH]c(Cc3ccccc3)n2)CCn2nc(C3CCOCC3)cc21` (stereo not shown) [Example 235, 5-benzyl-N-(4-methyl-5-oxo-2-(tetrahydro-2H-pyran-4-yl)-5,6,7,8-tetrahydro-4H-pyrazolo[1,5-a][1,3]diazepin-6-yl)-1H-1,2,4-triazole-3-carboxamide]: 226 nM; `CC[C@@]1(C)OCc2cnc(C(=O)NC3CCn4nc(C5CCOCC5)cc4N(C)C3=O)cc21` (stereo partly drawn) [Example 236, (1R)-1-ethyl-1-methyl-N-(4-methyl-5-oxo-2-(tetrahydro-2H-pyran-4-yl)-5,6,7,8-tetrahydro-4H-pyrazolo[1,5-a][1,3]diazepin-6-yl)-1,3-dihydrofuro[3,4-c]pyridine-6-carboxamide]: 8000 nM; `CN1C(=O)C(NC(=O)c2cn(Cc3ccccc3)nn2)CCn2nc(C3CCOCC3)cc21` (stereo not shown) [Example 237, 1-benzyl-N-(4-methyl-5-oxo-2-(tetrahydro-2H-pyran-4-yl)-5,6,7,8-tetrahydro-4H-pyrazolo[1,5-a][1,3]diazepin-6-yl)-1H-1,2,3-triazole-4-carboxamide]: 1400 nM.
Regarding `CC(C)c1cnc2[nH]nc(C(=O)N[C@H]3COc4ccccc4N(C)C3=O)c2c1` [Example 238, (S)-5-isopropyl-N-(5-methyl-4-oxo-2,3,4,5-tetrahydrobenzo[b][1,4]oxazepin-3-yl)-1H-pyrazolo[3,4-b]pyridine-3-carboxamide], the Ki amounted to 54.7 nM.
Consider `CN1C(=O)[C@@H](NC(=O)c2n[nH]c3ncc(C4CC4)cc23)COc2ccccc21` [Example 239, (S)-5-cyclopropyl-N-(5-methyl-4-oxo-2,3,4,5-tetrahydrobenzo[b][1,4]oxazepin-3-yl)-1H-pyrazolo[3,4-b]pyridine-3-carboxamide], for which the Ki came out at 289 nM.
As for `Cc1cc2n(n1)CC[C@H](NC(=O)c1nnc(Cc3ccccc3)[nH]1)C(=O)N2C` [Example 240, (S)-5-benzyl-N-(2,4-dimethyl-5-oxo-5,6,7,8-tetrahydro-4H-pyrazolo[1,5-a][1,3]diazepin-6-yl)-4H-1,2,4-triazole-3-carboxamide], the Ki is 84.6 nM.
Regarding `Cc1cc2n(n1)CC[C@@H](NC(=O)c1nnc(Cc3ccccc3)[nH]1)C(=O)N2C` [Example 241, (R)-5-benzyl-N-(2,4-dimethyl-5-oxo-5,6,7,8-tetrahydro-4H-pyrazolo[1,5-a][1,3]diazepin-6-yl)-4H-1,2,4-triazole-3-carboxamide], the Ki worked out at 8900 nM.
`Cc1cc(Cn2cnc(C(=O)NC3CCn4nc(C5CC5)cc4N(C)C3=O)n2)ccn1` (stereo not shown) [Example 242, N-(2-cyclopropyl-4-methyl-5-oxo-5,6,7,8-tetrahydro-4H-pyrazolo[1,5-a][1,3]diazepin-6-yl)-1-((2-methylpyridin-4-yl)methyl)-1H-1,2,4-triazole-3-carboxamide]: the inhibition constant Ki is 5700 nM.
On to `CC[C@]1(C)OCc2cnc(C(=O)N[C@H]3COc4cc(F)cc(F)c4NC3=O)cc21` [Example 243, (S)—N—((S)-6,8-difluoro-4-oxo-2,3,4,5-tetrahydrobenzo[b][1,4]oxazepin-3-yl)-1-ethyl-1-m ethyl-1,3-dihydrofuro[3,4-c]pyridine-6-carboxamide], for which the inhibition constant (Ki) is 270 nM.
The same measure, in the same setting: the value for `CC[C@@]1(C)OCc2cnc(C(=O)N[C@H]3COc4cc(F)cc(F)c4NC3=O)cc21` [Example 244, (R)—N—((S)-6,8-difluoro-4-oxo-2,3,4,5-tetrahydrobenzo[b][1,4]oxazepin-3-yl)-1-ethyl-1-methyl-1,3-dihydrofuro[3,4-c]pyridine-6-carboxamide] was 36.8 nM; that for `CC[C@@]1(C)OCc2cnc(C(=O)N[C@H]3CCn4nc(C5CC5)cc4N(C)C3=O)cc21` [Example 245, (R)—N—((S)-2-cyclopropyl-4-methyl-5-oxo-5,6,7,8-tetrahydro-4H-pyrazolo[1,5-a][1,3]diazepin-6-yl)-1-ethyl-1-methyl-1,3-dihydrofuro[3,4-c]pyridine-6-carboxamide] was 782 nM.
Consider `Cc1cc2n(n1)CCC(NC(=O)c1ncn(CC3CCC(F)(F)CC3)n1)C(=O)N2C` (stereo not shown) [Example 246, 1-((4,4-difluorocyclohexyl)methyl)-N-(2,4-dimethyl-5-oxo-5,6,7,8-tetrahydro-4H-pyrazolo[1,5-a][1,3]diazepin-6-yl)-1H-1,2,4-triazole-3-carboxamide], for which the inhibition constant Ki was found to be 695 nM.
Still for that read-out and setting: the value for `Cc1cc2n(n1)CCC(NC(=O)c1ncn(CC3CCC3)n1)C(=O)N2C` (stereo not shown) [Example 247, 1-(cyclobutylmethyl)-N-(2,4-dimethyl-5-oxo-5,6,7,8-tetrahydro-4H-pyrazolo[1,5-a][1,3]diazepin-6-yl)-1H-1,2,4-triazole-3-carboxamide] was 221 nM; that for `Cc1cc2n(n1)CCC(NC(=O)c1ncn(CC3CC(F)(F)C3)n1)C(=O)N2C` (stereo not shown) [Example 248, 1-((3,3-difluorocyclobutyl)methyl)-N-(2,4-dimethyl-5-oxo-5,6,7,8-tetrahydro-4H-pyrazolo[1,5-a][1,3]diazepin-6-yl)-1H-1,2,4-triazole-3-carboxamide] was 1100 nM.
In the case of `Cc1cc2n(n1)CCC(NC(=O)c1ncn(Cc3ccc(Cl)cc3)n1)C(=O)N2C` (stereo not shown) [Example 249, 1-(4-chlorobenzyl)-N-(2,4-dimethyl-5-oxo 6,7,8-tetrahydro-4H-pyrazolo[1,5-a][1,3]diazepin-6-yl)-1H-1,2,4-triazole-3-carboxamide], the Ki stood at 92.1 nM.
Same read-out and setting: next, `Cc1cc2n(n1)CCC(NC(=O)c1ncn(CCC(F)(F)F)n1)C(=O)N2C` (stereo not shown) [Example 250, N-(2,4-dimethyl-5-oxo-5,6,7,8-tetrahydro-4H-pyrazolo[1,5-a][1,3]diazepin-6-yl)-1-(3,3,3-trifluoropropyl)-1H-1,2,4-triazole-3-carboxamide]: 1000 nM; `Cc1cc2n(n1)CCC(NC(=O)c1ncn(CC3CCCC3)n1)C(=O)N2C` (stereo not shown) [Example 251, 1-(cyclopentylmethyl)-N-(2,4-dimethyl-5-oxo-5,6,7,8-tetrahydro-4H-pyrazolo[1,5-a][1,3]diazepin-6-yl)-1H-1,2,4-triazole-3-carboxamide]: 136 nM.
On the same count and under the same terms, the value for `CC(C1CCn2nnc(C(=O)N[C@H]3COc4ccccc4N(C)C3=O)c2C1)C(F)(F)F` (stereo partly drawn) [Example 252, N—((S)-5-methyl-4-oxo-2,3,4,5-tetrahydrobenzo[b][1,4]oxazepin-3-yl)-5-(1,1,1-trifluoropropan-2-yl)-4,5,6,7-tetrahydro-[1,2,3]triazolo[1,5-a]pyridine-3-carboxamide] was 70.7 nM.

Values taken from patent publication US10988459B2 (priority 2015, dated 2021).
